Experimental data as given in US20230312524A1, “ALPHA1A-ADRENERGIC RECEPTOR AGONISTS AND METHODS OF USE” (CuraSen Therapeutics, Inc., priority 2020, published 2023).
Where two headings read alike, the source gives them in different places.

Target: T1, α1A-ARS (Homo sapiens, UniProt P35348)
T1 sequence (P35348 1-466): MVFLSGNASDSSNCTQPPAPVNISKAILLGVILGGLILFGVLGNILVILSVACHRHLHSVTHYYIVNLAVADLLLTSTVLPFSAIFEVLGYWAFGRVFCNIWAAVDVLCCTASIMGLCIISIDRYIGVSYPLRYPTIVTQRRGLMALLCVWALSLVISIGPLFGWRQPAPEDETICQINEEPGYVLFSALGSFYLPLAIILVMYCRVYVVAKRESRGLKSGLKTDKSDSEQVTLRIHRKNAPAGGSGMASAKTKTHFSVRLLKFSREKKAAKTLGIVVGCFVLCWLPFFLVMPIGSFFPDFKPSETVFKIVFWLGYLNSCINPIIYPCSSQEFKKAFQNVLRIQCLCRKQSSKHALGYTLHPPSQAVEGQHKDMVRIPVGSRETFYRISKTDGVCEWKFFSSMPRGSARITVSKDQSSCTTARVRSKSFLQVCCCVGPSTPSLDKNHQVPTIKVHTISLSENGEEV
Assay: Calcium flux assay (Calcium 6 dye) in cells expressing an α1-AR
Assay type: cell-based
Conditions: for Emax: read-out: Average Emax; for EC50: mean of at least three experiments, read-out: Average PEC50
Description: Calcium flux experimental design: alpha-1 adrenergic receptors (α1-ARs) couple to Gq proteins, which results in downstream activation of phospholipase C and release of calcium from intracellular stores. Intracellular calcium increase upon α1-AR activation can be detected by Calcium 6 dye.
Cell preparation: cells expressing an α1-AR were washed in warmed phosphate-buffered saline to remove medium and harvested using versene (Caisson Labs, catalog #EDL01).
Media was removed from cells by tapping plates upside-down on absorbent wipes, followed by 15 second upside-down 50×g centrifugation, again on absorbent wipes. 12 μL cell dye solution was added to cells using a reagent dispenser (Integra viaFILL) and cells were incubated for 90 minutes at 37° C., 5% CO2.
Compound preparation: candidate alpha-adrenergic compounds, dissolved to 10 mM in DMSO, were diluted in_assay buffer (HBSS/H-EPES containing 2 mM CaCl2 and 2 mM probenecid sodium salt). […] On all assay plates, vehicle (DMSO) and positive control (10 μM epinephrine) conditions were included on the plate, as well as a dose-response curve of epinephrine. […] 384 well compound plates were centrifuged briefly at 250×g, sealed (Axygen PCR-SP) and incubated at 37° C. until the 90 minute cell dye incubation was complete.
Calcium 6 stained cells and 384 well compound plates were loaded onto the Flexstation and incubated on the machine for 5 minutes before initiating the assay.
For each assay well, baseline Calcium 6 fluorescence was detected for 18 seconds prior to 12 μL compound addition at 12 μL per second. Changes in Calcium 6 fluorescence were detected for a further 22 seconds, for a total read time of 40 seconds. All detection was performed with medium gain sensitivity, bottom read, with 6 flashes per read.
Data analysis: for calcium flux, analysis of maximum change from baseline over the 40-second read time was determined using Softmax Pro and data was exported as raw text files. Potency estimates (EC50) were derived from dose response curves (maximum change from baseline versus the log concentration of test compound) fit by four-parameter nonlinear regression using Graphpad Prism. Efficacy was determined by comparing the magnitude of the test compound signal window (fitted curve max−min) with the signal window of the full agonist control, epinephrine. […] All experiments were repeated a minimum of three times, with the average (mean) potency and maximum effect relative to the within-plate full agonist dose-response comparator reported.

[1] = calcium flux, α1A-AR, maximum effect relative to full agonist epinephrine

SMILES	Emax [1] [%]	EC50 (calcium flux, α1A-AR) [nM]	Emax [%]
Cc1cc(Cl)ccc1CC1=NCCN1 [Compound 38]		10 to 977	21 to 60
FC(F)(F)c1cc(Cl)ccc1CC1=NCCN1 [Compound 39]		10 to 977	> 61
COc1cc(Cl)ccc1CC1=NCCN1 [Compound 40]		10 to 977	21 to 60
CC(C)(C)c1cc(Cl)ccc1CC1=NCCN1 [Compound 41]		> 1000	< 20
Cc1oc2ccc(CC3=NCCN3)cc2c1C [Compound 42]		> 1000	< 20
Cc1oc2cc(CC3=NCCN3)ccc2c1C [Compound 43]		10 to 977	21 to 60
Cc1c(CC2=NCCN2)cc(C)c2occc12 [Compound 44]		10 to 977	21 to 60
Cc1oc2c(CC3=NCCN3)cccc2c1C [Compound 45]		10 to 977	> 61
COc1c(CC2=NCCN2)ccc2occc12 [Compound 47]		10 to 977	21 to 60
c1cc(CC2=NCCN2)c2occc2c1 [Compound 48]		10 to 977	> 61
c1cc(CC2=NCCN2)c2[nH]ccc2c1 [Compound 50]		10 to 977	21 to 60
c1cc(CC2=NCCN2)c2[nH]ncc2c1 [Compound 51]		> 1000	21 to 60
Clc1c(CC2=NCCN2)ccc2occc12 [Compound 52]		10 to 977	< 20
Clc1cc2occc2cc1CC1=NCCN1 [Compound 53]		< 9.77	> 61
Cc1c(CC2=NCCN2)ccc2occc12 [Compound 54]		10 to 977	21 to 60
Cc1c(CC2=NCCN2)ccc2[nH]ncc12 [Compound 55]		10 to 977	21 to 60
Cc1c(CC2=NCCN2)cc(Cl)c2occc12 [Compound 56]		10 to 977	21 to 60
Cc1c(CC2=NCCN2)ccc2c1CCO2 [Compound 58]		10 to 977	21 to 60
Cc1cc2cccc(CC3=NCCN3)c2o1 [Compound 59]		10 to 977	> 61
Cc1coc2c(CC3=NCCN3)cccc12 [Compound 60]		10 to 977	21 to 60
Cc1c(CC2=NCCN2)ccc2cc[nH]c12 [Compound 61]		10 to 977	< 20
Clc1cn(C2CC2)c2cc(CC3=NCCN3)ccc12 [Compound 63]		10 to 977	21 to 60
CC(C)(C)c1ccccc1CC1=NCCN1 [Compound 64]		> 1000	< 20
Clc1ccc(CC2=NCCN2)c(C2CC2)c1 [Compound 65]		10 to 977	> 61
Cc1cc(C(F)(F)F)ccc1CC1=NCCN1 [Compound 66]		10 to 977	21 to 60
CCc1cc(Cl)ccc1CC1=NCCN1 [Compound 67]		10 to 977	> 61
Fc1ccc(CC2=NCCN2)c(C2CC2)c1 [Compound 70]		10 to 977	21 to 60
CCc1cc(F)ccc1CC1=NCCN1 [Compound 71]		10 to 977	21 to 60
Cc1cc(F)ccc1CC1=NCCN1 [Compound 73]		10 to 977	21 to 60

Further lines, with some results ahead:

Emax [1] [%]	EC50 (calcium flux, α1A-AR) [nM]	SMILES	Emax [%]
< 20	> 1000	Cn1nccc1-c1ccc(CC2=NCCN2)cc1Cl [Compound 1]	
< 20	> 1000	Clc1cc(CC2=NCCN2)ccc1-c1ccn[nH]1 [Compound 2]	
< 20	> 1000	Clc1cc(CC2=NCCN2)ccc1-c1ncco1 [Compound 3]	
< 20	> 1000	Cc1csc(-c2ccc(CC3=NCCN3)cc2Cl)n1 [Compound 4]	
21 to 60	10 to 977	Cc1c(CC2=NCCN2)cccc1-c1ncco1 [Compound 5]	
21 to 60	10 to 977	Cc1c(CC2=NCCN2)cccc1-c1cn[nH]c1 [Compound 6]	
21 to 60	10 to 977	Cc1c(CC2=NCCN2)cccc1-c1ccnn1C [Compound 7]	
< 20	> 1000	Cc1csc(-c2cccc(CC3=NCCN3)c2C)n1 [Compound 8]	
21 to 60	10 to 977	Clc1ccc(CC2=NCCN2)cc1-c1ncco1 [Compound 10]	
< 20	> 1000	Cn1nccc1-c1cc(CC2=NCCN2)ccc1Cl [Compound 11]	
< 20	10 to 977	Cc1c(CC2=NCCN2)ccc(-c2ncco2)c1Cl [Compound 12]	
> 61	10 to 977	Clc1ccc(CC2=NCCN2)c(-c2ncco2)c1 [Compound 13]	
21 to 60	10 to 977	Cc1c(CC2=NCCN2)ccc(Cl)c1-c1ncco1 [Compound 14]	
< 20	> 1000	Cc1c(CC2=NCCN2)ccc(Cl)c1-c1ccnn1C [Compound 15]	
21 to 60	10 to 977	Cn1nccc1-c1cc(Cl)ccc1CC1=NCCN1 [Compound 16]	
< 20	> 1000	Cc1c(CC2=NCCN2)ccc(Cl)c1-c1cn[nH]c1 [Compound 17]	
> 61	10 to 977	Clc1ccc(CC2=NCCN2)c(-c2ccccn2)c1 [Compound 18]	
> 61	> 1000	Clc1ccc(CC2=NCCN2)c(-c2cccnc2)c1 [Compound 19]	
21 to 60	10 to 977	Cc1c(CC2=NCCN2)cccc1-c1cc[nH]n1 [Compound 20]	
> 61	10 to 977	Clc1ccc(CC2=NCCN2)c(-n2cccn2)c1 [Compound 21]	
21 to 60	10 to 977	Cc1c(CC2=NCCN2)cccc1-n1cccn1 [Compound 22]	

Emax [1] [%]	EC50 (calcium flux, α1A-AR) [nM]	SMILES	Emax [%]
21 to 60	10 to 977	Clc1ccc(CC2=NCCN2)cc1-n1cccn1 [Compound 23]	
21 to 60	10 to 977	Cc1csc(-c2cc(Cl)ccc2CC2=NCCN2)n1 [Compound 24]	
> 61	< 9.77	Clc1ccc(CC2=NCCN2)c(-c2nccs2)c1 [Compound 25]	
< 20	10 to 977	Cc1c(CC2=NCCN2)cccc1-c1cccs1 [Compound 26]	
21 to 60	10 to 977	Clc1ccc(CC2=NCCN2)c(-c2cnccn2)c1 [Compound 27]	
> 61	< 9.77	Clc1ccc(CC2=NCCN2)c(-c2cccs2)c1 [Compound 28]	
21 to 60	10 to 977	Cc1c(CC2=NCCN2)cccc1-c1ccco1 [Compound 29]	
> 61	< 9.77	Clc1ccc(CC2=NCCN2)c(-c2ccco2)c1 [Compound 30]	
> 61	10 to 977	Clc1ccc(CC2=NCCN2)c(-c2ncccn2)c1 [Compound 32]	
< 20	> 1000	Clc1ccc(CC2=NCCN2)c(-c2cccnn2)c1 [Compound 33]	
21 to 60	> 1000	Clc1ccc(CC2=NCCN2)c(-c2ccncn2)c1 [Compound 34]	
> 61	< 9.77	Cc1ccoc1-c1cc(Cl)ccc1CC1=NCCN1 [Compound 35]	
< 20	> 1000	Cc1c(CC2=NCCN2)ccc(Cl)c1-c1nccs1 [Compound 36]	
21 to 60	10 to 977	Cc1cc(-c2cc(Cl)ccc2CC2=NCCN2)sn1 [Compound 37]	
21 to 60	10 to 977	c1cc2c(cc1CC1=NCCN1)NCC21CC1 [Compound 46]	
< 20	> 1000	Clc1cn(-c2cn[nH]c2)c2cc(CC3=NCCN3)ccc12 [Compound 62]	
< 20	> 1000	FC(F)(F)c1ccc(CC2=NCCN2)c(N2CCOCC2)c1 [Compound 68]	
21 to 60	10 to 977	FC(F)(F)c1ccc(CC2=NCCN2)c(N2CCCCC2)c1 [Compound 69]	
< 20	> 1000	Fc1ccc(CC2=NCCN2)c(N2CCOCC2)c1 [Compound 72]	
> 61	10 to 977	Clc1ccc(CC2=NCCN2)c(-c2ccccc2)c1 [Compound 74]	
